Reference: ChEMBL document CHEMBL1201862, “PubChem BioAssay data set” (2004)
Calls of active or inactive are those of the source.

Columns and labels:
[1] = molecular target: Glyceraldehyde-3-phosphate dehydrogenase (Homo sapiens, UniProt P04406)
[2] = molecular target: T1, Alkaline phosphatase, tissue-nonspecific isozyme (Homo sapiens, UniProt P05186); assay: potency against alkaline phosphatase TNAP – biochemical, luminescent, dose response, SAR follow-up (AID 1056)
T1 sequence (P05186 whole entry): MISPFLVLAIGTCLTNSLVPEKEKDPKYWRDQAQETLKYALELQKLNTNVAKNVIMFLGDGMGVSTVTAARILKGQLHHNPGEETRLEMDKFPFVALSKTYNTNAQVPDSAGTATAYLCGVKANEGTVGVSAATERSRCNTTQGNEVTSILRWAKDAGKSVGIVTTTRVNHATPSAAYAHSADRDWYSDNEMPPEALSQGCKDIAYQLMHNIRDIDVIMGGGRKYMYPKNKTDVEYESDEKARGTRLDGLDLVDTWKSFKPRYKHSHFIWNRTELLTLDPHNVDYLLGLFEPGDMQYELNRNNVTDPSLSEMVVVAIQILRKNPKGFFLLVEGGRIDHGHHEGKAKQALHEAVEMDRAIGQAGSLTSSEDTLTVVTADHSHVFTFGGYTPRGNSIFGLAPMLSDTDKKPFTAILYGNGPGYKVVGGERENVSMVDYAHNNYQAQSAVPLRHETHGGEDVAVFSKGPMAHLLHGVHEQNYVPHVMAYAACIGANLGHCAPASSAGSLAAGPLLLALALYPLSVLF

Leucine aminopeptidase = molecular target: T2, Leucine aminopeptidase (Plasmodium falciparum 3D7, UniProt Q8IL11); assay: P. falciparum M17LAP inhibitors, primary screen, biochemical, fluorogenic H-Leu-NHMec substrate, 1536-well (AID 1619); format: functional
T2 sequence (Q8IL11 whole entry): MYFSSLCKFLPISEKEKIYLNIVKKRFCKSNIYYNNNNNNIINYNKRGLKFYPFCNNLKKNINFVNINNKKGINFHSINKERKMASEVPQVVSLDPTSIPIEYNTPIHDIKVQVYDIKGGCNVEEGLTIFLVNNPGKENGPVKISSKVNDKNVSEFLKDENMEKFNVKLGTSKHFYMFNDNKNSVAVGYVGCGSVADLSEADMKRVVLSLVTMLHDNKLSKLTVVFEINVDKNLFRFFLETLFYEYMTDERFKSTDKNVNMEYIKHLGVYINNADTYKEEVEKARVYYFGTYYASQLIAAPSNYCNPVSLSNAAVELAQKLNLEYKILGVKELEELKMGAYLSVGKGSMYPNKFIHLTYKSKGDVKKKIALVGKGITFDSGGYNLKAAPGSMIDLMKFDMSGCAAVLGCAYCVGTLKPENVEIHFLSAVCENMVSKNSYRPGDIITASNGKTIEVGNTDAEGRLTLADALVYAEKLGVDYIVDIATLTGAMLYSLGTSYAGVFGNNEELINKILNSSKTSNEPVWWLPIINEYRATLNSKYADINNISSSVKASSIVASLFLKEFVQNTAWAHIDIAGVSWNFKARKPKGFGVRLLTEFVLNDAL

[3] = THP-1 cell cytotoxicity, dose response, cytotoxicity control for non-replicating M. tuberculosis project (AID 489025); format: functional
[4] = HepG2 cell cytotoxicity, dose response, cytotoxicity control for non-replicating M. tuberculosis project (AID 489018); format: functional; conditions: Mycobacterium tuberculosis
[5] = Vero E6 cell cytotoxicity, dose response, cytotoxicity control for non-replicating M. tuberculosis project, secondary assay (AID 492998); format: functional, VeroE6; conditions: Vero C1008
cells = format: functional
H9c2 = assay: cells; format: functional, cell-based; conditions: Rattus norvegicus, H9c2, Myocardium;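 further: confirmatory concentration-response retest of ultra-high-throughput screening hits for modulation of myocardial damage; cell death induced by hydrogen peroxide oxidative stress; compound pretreatment for 60 min then peroxide exposure for 2 h; potency is for protecting the cells against peroxide damage rather than for killing them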
[6] = Luminescence Cell-Based Dose Retest to Confirm Inhibitors of Cancer Stem Cells. [Related pubchem assays (depositor defined):AID2717, AID2721]; format: functional; conditions: Homo sapiens
[7] = HEK-293T viability loss after treatment – luminescence, T-cell screen hits, cytotoxicity control for TCR NF-kB inhibitor project, dose response (AID 489026); format: functional, cell-based;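 further: cells exposed to compound about 14 hours before the viability readout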
Nonstructural protein 1 = Nonstructural protein 1 (Influenza A virus, UniProt Q194T2); format: functional, Influenza A virus (A/California/07/2009(H1N1))
INS1 = assay: INS-1E survival protection against cytokine death – cell-based, luminescence, retest, dose response (AID 449756); format: functional; conditions: Rattus norvegicus;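 further: cell death triggered by IL-1 beta plus TNF-alpha plus IFN-gamma mixture; protective hits raise ATP signal compared with cytokine alone wells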
[8] = reduction of Shn3 3'UTR-driven luciferase in osteoblasts – cell-based, Clone20 osteoblasts, firefly luciferase, cherry-picked, dose response (AID 624132); format: functional;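 further: firefly luciferase luminescence from reporter carrying the Shn3 3'UTR in osteoblasts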
[9] = loss of viability in HepG2 cells – cell-based, CellTiter-Glo, cherry-picked, cytotoxicity control for Shn3 inhibitor project, dose response (AID 624134); format: functional
[10] = non-specific 3'UTR reporter inhibition in Clone20-Shn3RL – cell-based, Renilla luciferase, cherry-picked, counter-screen for Shn3 inhibitor project, dose response (AID 624133); format: functional
Genome polyprotein = Genome polyprotein (dengue virus type 2, UniProt P29990); assay: flavivirus cap methylation enzyme inhibition – biochemical, confirmation dose response, primary screen (AID 588689); format: functional
[11] = NIH-3T3 fibroblast cytotoxicity, dose response, cytotoxicity control, cell-based, fluorescence, Alamar Blue, secondary assay (AID 2327); format: functional;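 further: NIH-3T3 mouse fibroblasts cultured with fluconazole at 8 µg/mL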
[12] = fluconazole-exposed Candida albicans growth modulators – fluorescence, retest, confirmation (AID 2467); format: functional, cell-based
[13] = microbe, parasite or virus in culture; format: functional; conditions: Mycobacterium tuberculosis
Estrogen receptor beta = Estrogen receptor beta (Homo sapiens, UniProt Q92731); assay: blockers of SRC-3 recruitment to ERβ – biochemical, ELISA, streptavidin-HRP readout, orthogonal assay, confirmation (AID 1060)
BJ [14] = assay: BJ-TERT fibroblast viability loss – cell-based, RAS-independent, luminescence, dose response (AID 1933); format: functional; conditions: Homo sapiens
BJ [15] = assay: cells; format: functional, cell-based; conditions: Homo sapiens
BJ [16] = assay: BJ-TERT-LT-ST fibroblast viability loss – cell-based, RAS-independent, luminescence, dose response (AID 1935); format: functional; conditions: Homo sapiens;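 further: BJ fibroblasts immortalized with TERT plus LT and ST oncogenes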
[17] = DRD fibroblast viability loss – cell-based, non-viral oncogenic, luminescence, dose response (AID 1934); format: functional; conditions: Homo sapiens

Glyceraldehyde-3-phosphate dehydrogenase, sequence (P04406 whole entry): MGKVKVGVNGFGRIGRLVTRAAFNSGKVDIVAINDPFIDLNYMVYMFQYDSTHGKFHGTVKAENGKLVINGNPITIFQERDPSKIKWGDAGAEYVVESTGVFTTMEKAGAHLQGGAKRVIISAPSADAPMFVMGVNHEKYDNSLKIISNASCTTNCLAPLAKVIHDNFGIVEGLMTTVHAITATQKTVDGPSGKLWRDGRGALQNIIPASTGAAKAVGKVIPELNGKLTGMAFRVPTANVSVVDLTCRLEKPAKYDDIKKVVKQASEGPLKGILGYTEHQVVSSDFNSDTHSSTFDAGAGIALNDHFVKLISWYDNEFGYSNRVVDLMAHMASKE
Estrogen receptor beta, sequence (Q92731 whole entry): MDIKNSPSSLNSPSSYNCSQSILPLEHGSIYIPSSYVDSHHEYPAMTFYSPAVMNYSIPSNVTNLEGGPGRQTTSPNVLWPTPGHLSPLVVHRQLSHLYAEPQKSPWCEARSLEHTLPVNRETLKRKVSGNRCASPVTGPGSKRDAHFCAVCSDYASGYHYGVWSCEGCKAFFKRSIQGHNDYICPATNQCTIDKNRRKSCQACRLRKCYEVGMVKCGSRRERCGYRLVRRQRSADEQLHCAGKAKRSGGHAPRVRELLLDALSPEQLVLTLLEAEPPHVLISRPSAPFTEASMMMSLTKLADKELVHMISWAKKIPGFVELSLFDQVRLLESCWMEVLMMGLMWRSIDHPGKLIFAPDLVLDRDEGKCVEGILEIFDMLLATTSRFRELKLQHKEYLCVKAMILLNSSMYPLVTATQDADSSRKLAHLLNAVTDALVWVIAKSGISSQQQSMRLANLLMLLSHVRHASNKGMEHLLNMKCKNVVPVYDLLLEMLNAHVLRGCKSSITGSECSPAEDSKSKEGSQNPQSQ
Nonstructural protein 1, sequence (Q194T2 whole entry): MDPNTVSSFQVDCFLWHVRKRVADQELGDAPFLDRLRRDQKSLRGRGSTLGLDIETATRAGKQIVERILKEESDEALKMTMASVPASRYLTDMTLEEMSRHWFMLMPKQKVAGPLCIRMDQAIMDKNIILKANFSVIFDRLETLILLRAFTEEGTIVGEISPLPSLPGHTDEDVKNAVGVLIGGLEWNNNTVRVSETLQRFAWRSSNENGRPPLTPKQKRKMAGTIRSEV
Genome polyprotein, sequence (P29990 2492-3391 limits assumed): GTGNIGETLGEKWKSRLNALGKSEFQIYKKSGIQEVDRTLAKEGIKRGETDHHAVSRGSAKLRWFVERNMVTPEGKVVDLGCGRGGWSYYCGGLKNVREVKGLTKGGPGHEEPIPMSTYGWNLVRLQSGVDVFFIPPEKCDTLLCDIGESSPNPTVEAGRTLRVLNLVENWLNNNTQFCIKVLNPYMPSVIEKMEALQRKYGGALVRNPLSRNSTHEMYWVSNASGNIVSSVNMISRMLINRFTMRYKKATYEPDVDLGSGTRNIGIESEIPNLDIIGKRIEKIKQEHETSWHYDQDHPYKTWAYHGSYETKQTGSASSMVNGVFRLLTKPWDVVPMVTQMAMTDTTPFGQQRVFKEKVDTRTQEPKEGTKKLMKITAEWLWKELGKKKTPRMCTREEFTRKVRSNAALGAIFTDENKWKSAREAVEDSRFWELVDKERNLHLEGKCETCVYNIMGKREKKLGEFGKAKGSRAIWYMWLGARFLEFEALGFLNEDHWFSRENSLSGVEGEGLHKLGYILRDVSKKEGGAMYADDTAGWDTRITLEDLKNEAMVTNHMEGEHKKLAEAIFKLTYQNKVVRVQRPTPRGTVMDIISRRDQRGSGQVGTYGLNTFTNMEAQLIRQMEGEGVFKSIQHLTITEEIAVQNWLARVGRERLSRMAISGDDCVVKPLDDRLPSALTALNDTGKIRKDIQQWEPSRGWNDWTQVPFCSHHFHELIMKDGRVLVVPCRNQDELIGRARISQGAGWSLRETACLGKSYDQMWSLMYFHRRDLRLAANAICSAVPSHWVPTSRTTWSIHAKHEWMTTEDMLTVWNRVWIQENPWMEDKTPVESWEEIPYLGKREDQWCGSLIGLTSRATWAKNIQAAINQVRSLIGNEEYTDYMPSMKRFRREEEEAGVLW

Compound: CCOc1ccc(S(=O)(=O)Nc2nc3ccccc3nc2Cl)cc1
- IC50 [1]: > 100 µM (not active)
- IC50 [2]: > 100 µM (inactive)

Compound: O=C(O)COc1ccccc1/C=C1\SC(=O)N(Cc2ccc(F)cc2)C1=O
- IC50 (Leucine aminopeptidase): 34.8 µM (active)

Compound: CCOC(=O)Cc1c(C)nc2c(-c3ccc(Cl)cc3)cnn2c1O
- CC50 [3]: 29 µM (active)
- CC50 [4]: > 20 µM (active)
- CC50 [5]: 17.5 µM (active)
- IC50 (cells): 6.28 µM (active)
- IC50 (H9c2): > 79 µM (inactive)

Compound: Cc1ccnc2c1ccc1c(C)ccnc12
- AC50 [6]: 1.54 µM (active)
- IC50 [7]: > 80 µM (inactive)
- IC50 (Nonstructural protein 1): 0.472 µM (active)
- AC50 (INS1): 1.92 µM (active)
- AC50 [8]: 0.857 µM (active)
- AC50 [9]: > 70 µM (inactive)
- AC50 [10]: > 70 µM (inactive)

Compound: Cn1nc(C(=O)O)cc1-c1ccc(F)cc1
- IC50 [1]: > 100 µM (not active)
- IC50 [2]: > 100 µM (inactive)

Compound: O=C(O)CCc1nnc(SCC(=O)Nc2ccc(Br)cc2)nc1O
- IC50 (Leucine aminopeptidase): 2.45 µM (active)

Compound: CCCCCCSc1nc(O)c(C2OC(=O)c3c2ccc(OC)c3OC)c(=O)n1CC (stereo not given)
- IC50 (Leucine aminopeptidase): 3 µM (active)
- IC50 (Genome polyprotein): 56.9 µM (active)

Compound: CCCCN(C)S(=O)(=O)c1ccc(C(=O)Nc2nnc(-c3ccco3)o2)cc1
- EC50 [11]: > 160 µM (inconclusive)
- EC50 [12]: 2.63 µM (active)
- CC50 [13]: 11.6 µM (active)
- CC50 [3]: 10.5 µM (active)
- CC50 [4]: 12.5 µM (active)
- CC50 [5]: 6.27 µM (active)
- IC50 (cells): 6.64 µM (active)

Compound: COCCOC(=O)c1c(C)oc2ccc(NS(=O)(=O)c3ccc(C(=O)O)cc3)cc12
- IC50 (Estrogen receptor beta): 3.82 µM (not active)

Compound: Cc1cc(S(=O)(=O)c2ccc([N+](=O)[O-])cn2)ccc1Br
- EC50 (BJ [14]): 3.26 µM (active)
- EC50 (BJ [15]): 17.6 µM (active)
- EC50 (BJ [16]): 17 µM (active)
- EC50 [17]: 6.93 µM (inconclusive)
- CC50 [3]: 12.2 µM (active)
- AC50 [6]: 1.86 µM (active)
- CC50 [4]: 18 µM (active)
- CC50 [5]: 13.6 µM (active)
- IC50 (cells): 0.68 µM (active)
- AC50 [8]: 3.69 µM (active)
- AC50 [9]: 21.4 µM (active)
- AC50 [10]: 17.5 µM (active)
